Tested on: Phytophthora infestans
Format: in vivo, Phytophthora infestans on Potato
Conditions: Potato field trial, France 2010, 6 foliar sprays, fluopicolide 75 g a.s./ha, cyazofamid 60 g a.s./ha, adjuvant 150 ml/ha

O=C(NCc1ncc(C(F)(F)F)cc1Cl)c1c(Cl)cccc1Cl [Fluopicolide, 2,6-dichloro-N-[3-chloro-5-(trifluoromethyl)-2-pyridylmethyl]benzamide]
Efficacy (Abbott values) (29 days after last application): 18.3%
Late blight severity on leaves (assessed 29 days after last application, mean values, untreated reference 100%): 81.7%
